Results taken from patent US11845747B2, “Ester and carbonate pyrimidine compounds as JAK kinase inhibitors” (priority 2019, dated 2023).

Key:
JAK3 = target: T1, JAK3 (Homo sapiens, UniProt P52333); test: Biochemical LanthaScreen JAK3 kinase assay; conditions: Km ATP 1.6 μM; pKi from pIC50 by Cheng-Prusoff; read-out: JAK 3 (pKi) (converted)
T1 construct: GST; purchased Life Technologies
T1 sequence (P52333 1-1124): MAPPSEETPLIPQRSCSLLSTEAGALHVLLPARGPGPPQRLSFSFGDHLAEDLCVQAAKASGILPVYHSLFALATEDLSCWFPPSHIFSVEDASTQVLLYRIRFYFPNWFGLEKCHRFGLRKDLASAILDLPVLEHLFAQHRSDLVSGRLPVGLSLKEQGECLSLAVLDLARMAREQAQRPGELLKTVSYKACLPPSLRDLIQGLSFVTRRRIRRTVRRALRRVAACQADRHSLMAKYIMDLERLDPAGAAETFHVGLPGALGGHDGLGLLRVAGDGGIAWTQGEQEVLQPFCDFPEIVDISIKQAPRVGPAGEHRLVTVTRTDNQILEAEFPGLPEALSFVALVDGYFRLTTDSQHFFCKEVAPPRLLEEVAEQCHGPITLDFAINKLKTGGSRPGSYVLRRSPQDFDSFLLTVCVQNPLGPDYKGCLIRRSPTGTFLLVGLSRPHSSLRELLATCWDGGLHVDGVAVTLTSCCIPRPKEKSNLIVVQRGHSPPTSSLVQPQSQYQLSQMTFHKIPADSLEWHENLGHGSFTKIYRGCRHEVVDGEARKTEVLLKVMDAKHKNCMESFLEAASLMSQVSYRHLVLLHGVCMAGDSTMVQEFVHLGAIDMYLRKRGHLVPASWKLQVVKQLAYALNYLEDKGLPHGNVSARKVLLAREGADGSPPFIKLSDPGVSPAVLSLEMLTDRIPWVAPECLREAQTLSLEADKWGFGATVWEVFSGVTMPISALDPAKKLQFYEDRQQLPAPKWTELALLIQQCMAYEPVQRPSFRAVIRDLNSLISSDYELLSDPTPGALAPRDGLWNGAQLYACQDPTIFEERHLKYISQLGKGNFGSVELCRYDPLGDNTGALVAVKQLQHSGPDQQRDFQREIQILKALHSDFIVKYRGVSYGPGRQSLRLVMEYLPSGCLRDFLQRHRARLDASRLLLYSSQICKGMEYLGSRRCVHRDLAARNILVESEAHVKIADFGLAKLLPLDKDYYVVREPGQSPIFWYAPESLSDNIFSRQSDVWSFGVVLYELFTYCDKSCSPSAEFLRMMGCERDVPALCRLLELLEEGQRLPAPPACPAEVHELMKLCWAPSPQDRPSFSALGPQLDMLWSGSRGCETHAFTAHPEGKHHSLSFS
Procedure: (§1) Assay 1: Biochemical JAK and Tyk2 Kinase Assays A panel of four LanthaScreen JAK biochemical assays (JAK1, 2, 3 and Tyk2) were carried in a common kinase reaction buffer (50 mM HEPES, pH 7.5, 0.01% Brij-35, 10 mM MgCl2, and 1 mM EGTA). Recombinant GST-tagged JAK enzymes and a GFP-tagged STAT1 peptide substrate were obtained from Life Technologies. Serially or discretely diluted compounds were pre-incubated with each of the four JAK enzymes and the substrate in white 384-well microplates (Corning) at ambient temperature for 1 h. ATP was subsequently added to initiate the kinase reactions in 10 μL total volume, with 1% DMSO. […] Kinase reactions were allowed to proceed for 1 hour at ambient temperature before a 10 μL preparation of EDTA (10 mM final concentration) and Tb-anti-pSTAT1 ([…]) antibody (Life Technologies, 2 nM final concentration) in TR-FRET dilution buffer (Life Technologies) was added. The plates were allowed to incubate at ambient temperature for 1 h before being read on the EnVision reader (Perkin Elmer). Emission ratio signals (520 nm/495 nm) were recorded and utilized to calculate the percent inhibition values based on DMSO and background controls. For dose-response analysis, percent inhibition data were plotted vs. compound concentrations, and IC50 values were determined from a 4-parameter robust fit model with the Prism software (GraphPad Software). Results were expressed as pIC50 (negative logarithm of IC50) and subsequently converted to pKi (negative logarithm of dissociation constant, Ki) using the Cheng-Prusoff equation.

in vitro = in vitro ADME; conditions: human, microsomes, pH 7.4
Procedure: Assay 3: Human Liver Microsome Assay The objective of this assay was to assess the metabolic stability of test compounds in an in vitro human liver sub-fraction. Human liver microsomes obtained from Bioreclamation-IVT (Baltimore, Md.) were thawed on ice and diluted into 0.1M potassium phosphate buffer pH 7.4 to yield final incubation protein concentrations of 0.1 mg/mL. Test compounds (10 mM) were diluted into NADPH cofactor to yield final incubation concentrations of 0.1 μM test compound and 1 mM NADPH. Incubations were conducted at 37° C. temperature and test aliquots were taken at time points 0, 5, 8, 15, 30 and 45 minutes. […] The resulting samples were injected onto an LC-MS/MS system for analysis. For each incubation, the peak area of the analytes in each t0 aliquot was set to 100% and the peak areas from subsequent time point aliquots were converted to percentage of parent compound remaining relative to t0. The percentage of parent compound remaining was converted to natural log scale and plotted versus time in minutes. A linear regression analysis was performed for the initial decline of the parent disappearance profile and a formula for the best-fit line determined. The slope of the resultant line was normalized to protein concentration in mg/mL protein or number of cells/mL and CLint was calculated as follows for liver microsomes: CLint(μL·min^−1·mg^−1)=(Slope×1000)/[protein, mg/mL]

JAK1 = target: T2, JAK1 (Homo sapiens, UniProt P23458); test: Biochemical LanthaScreen JAK1 kinase assay; conditions: Km ATP 25 μM; pKi from pIC50 by Cheng-Prusoff; read-out: JAK 1 (pKi) (converted)
T2 construct: GST; purchased Life Technologies
T2 sequence (P23458 whole entry): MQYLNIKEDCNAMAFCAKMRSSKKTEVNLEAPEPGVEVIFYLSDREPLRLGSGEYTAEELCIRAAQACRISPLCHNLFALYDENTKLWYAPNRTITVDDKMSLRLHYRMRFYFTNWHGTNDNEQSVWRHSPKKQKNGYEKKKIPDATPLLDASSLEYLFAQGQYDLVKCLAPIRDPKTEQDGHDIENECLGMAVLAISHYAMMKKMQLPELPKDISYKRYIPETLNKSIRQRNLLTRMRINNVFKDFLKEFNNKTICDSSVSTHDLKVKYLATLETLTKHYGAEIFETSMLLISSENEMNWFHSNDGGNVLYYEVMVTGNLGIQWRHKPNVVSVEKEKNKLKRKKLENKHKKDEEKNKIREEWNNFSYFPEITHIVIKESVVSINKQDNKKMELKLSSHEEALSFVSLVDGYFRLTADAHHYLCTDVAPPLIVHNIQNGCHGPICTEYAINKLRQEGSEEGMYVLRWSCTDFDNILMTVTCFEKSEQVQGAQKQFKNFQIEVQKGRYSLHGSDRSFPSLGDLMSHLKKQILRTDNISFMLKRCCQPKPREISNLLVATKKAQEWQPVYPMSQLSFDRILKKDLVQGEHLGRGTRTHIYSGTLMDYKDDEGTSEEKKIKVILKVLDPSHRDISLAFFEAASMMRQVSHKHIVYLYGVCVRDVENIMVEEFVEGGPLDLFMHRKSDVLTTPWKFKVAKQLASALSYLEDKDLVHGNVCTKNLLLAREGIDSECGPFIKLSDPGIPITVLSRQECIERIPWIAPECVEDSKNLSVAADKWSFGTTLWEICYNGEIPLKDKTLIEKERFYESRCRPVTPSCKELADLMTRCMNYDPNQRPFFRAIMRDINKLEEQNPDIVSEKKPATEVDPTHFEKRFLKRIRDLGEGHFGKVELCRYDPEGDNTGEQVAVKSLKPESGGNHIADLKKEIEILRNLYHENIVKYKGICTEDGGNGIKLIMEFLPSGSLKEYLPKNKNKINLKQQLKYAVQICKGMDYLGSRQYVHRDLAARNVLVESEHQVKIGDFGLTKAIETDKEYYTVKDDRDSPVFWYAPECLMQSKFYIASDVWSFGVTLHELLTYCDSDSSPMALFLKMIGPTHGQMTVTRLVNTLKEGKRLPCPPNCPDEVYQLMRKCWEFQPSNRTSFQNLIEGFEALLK
Procedure: as §1

[1] = In vitro skin S9 metabolic stability assay (human); assay type: in vitro ADME; conditions: human, s9, pH 7.4
Procedure: Assay 6: In Vitro Skin S9 Metabolic Stability Assay
The objective of this assay was to assess the metabolic stability of compounds in human and mouse skin S9 sub-fraction. Human and mouse skin S9 sub-fractions obtained from Bioreclamation-IVT (Baltimore, Md.) were thawed on ice and diluted into 0.1M potassium phosphate buffer pH 7.4 to yield final incubation protein concentrations of 1.0 mg/mL. Test compounds (10 mM) were diluted into phosphate buffer to yield final incubation concentrations of 0.2 μM and 2.0 μM. Incubations were conducted at 37° C. temperature following addition of 1 mM NADPH and test aliquots were taken at time points 0, 5, 10, 20, 30 and 45 minutes. Each aliquot was crashed into water with 3% formic acid and 1 μM internal standard. The resulting samples were injected onto an LC-MS/MS system for analysis.
For each incubation, the peak area of the analytes in each t0 aliquot was set to 100% and the peak areas from subsequent time point aliquots were converted to percentage of parent compound remaining relative to t0. The percentage of parent compound remaining at each time point was converted to natural log scale and plotted versus time in minutes to determine a disappearance half-life.

Row | Compound | Ki (JAK3) | microsomal CLint at 0.1 μM (in vitro) | Ki (JAK1) | half-life at 0.2 μM [1] | half-life at 2 μM [1]
1 | CCS(=O)(=O)N1[C@@H]2CCC[C@H]1C[C@H](N(C)c1nc(COC(=O)C3CCOCC3)c(F)c(Nc3cc(C)[nH]n3)n1)C2 [Compound 7, (2-(((1R,3s,5S)-9-(ethylsulfonyl)-9-azabicyclo[3.3.1]nonan-3-yl)(methyl)amino)-5-fluoro-6-((5-methyl-1H-pyrazol-3-yl)amino)pyrimidin-4-yl)methyl tetrahydro-2H-pyran-4-carboxylate] | 0.1 to 1 nM | > 2500 µL/min/mg | 0.1 to 1 nM | – | –
2 | CCCCC(=O)OCc1nc(N(C)[C@@H]2C[C@H]3CCC[C@@H](C2)N3S(=O)(=O)CC)nc(Nc2cc(C)[nH]n2)c1F [Compound 4, (2-(((1R,3s,5S)-9-(ethylsulfonyl)-9-azabicyclo[3.3.1]nonan-3-yl)(methyl)amino)-5-fluoro-6-((5-methyl-1H-pyrazol-3-yl)amino)pyrimidin-4-yl)methyl pentanoate] | 1 to 10 nM | – | 0.1 to 1 nM | 15 to 30 min | > 30 min
3 | CCS(=O)(=O)N1[C@@H]2CCC[C@H]1C[C@H](N(C)c1nc(CO)c(F)c(Nc3cc(C)[nH]n3)n1)C2 [Compound M, (2-(((1R,3s,5S)-9-(ethylsulfonyl)-9-azabicyclo[3.3.1]nonan-3-yl)(methyl)amino)-5-fluoro-6-((5-methyl-1H-pyrazol-3-yl)amino)pyrimidin-4-yl)methanol] | 0.1 to 1 nM | 132 µL/min/mg | ≤ 0.1 nM | – | –
4 | CCS(=O)(=O)N1[C@@H]2CCC[C@H]1C[C@H](N(C)c1nc(COC(=O)OC3CCOCC3)c(F)c(Nc3cc(C)[nH]n3)n1)C2 [Compound 9, (2-(((1R,3s,5S)-9-(ethylsulfonyl)-9-azabicyclo[3.3.1]nonan-3-yl)(methyl)amino)-5-fluoro-6-((5-methyl-1H-pyrazol-3-yl)amino)pyrimidin-4-yl)methyl (tetrahydro-2H-pyran-4-yl) carbonate] | 1 to 10 nM | > 2500 µL/min/mg | 0.1 to 1 nM | – | –
5 | CCCC(=O)OCc1nc(N(C)[C@@H]2C[C@H]3CCC[C@@H](C2)N3S(=O)(=O)CC)nc(Nc2cc(C)[nH]n2)c1F [Compound 3, (2-(((1R,3s,5S)-9-(ethylsulfonyl)-9-azabicyclo[3.3.1]nonan-3-yl)(methyl)amino)-5-fluoro-6-((5-methyl-1H-pyrazol-3-yl)amino)pyrimidin-4-yl)methyl butyrate] | 1 to 10 nM | – | 0.1 to 1 nM | > 30 min | > 30 min
6 | CCS(=O)(=O)N1[C@@H]2CCC[C@H]1C[C@H](N(C)c1nc(COC(=O)OC(C)C)c(F)c(Nc3cc(C)[nH]n3)n1)C2 [Compound 8, (2-(((1R,3s,5S)-9-(ethylsulfonyl)-9-azabicyclo[3.3.1]nonan-3-yl)(methyl)amino)-5-fluoro-6-((5-methyl-1H-pyrazol-3-yl)amino)pyrimidin-4-yl)methyl isopropyl carbonate] | 1 to 10 nM | – | 0.1 to 1 nM | – | –
7 | CCS(=O)(=O)N1[C@@H]2CCC[C@H]1C[C@H](N(C)c1nc(COC(=O)OC3CCCCC3)c(F)c(Nc3cc(C)[nH]n3)n1)C2 [Compound 6, cyclohexyl ((2-(((1R,3s,5S)-9-(ethylsulfonyl)-9-azabicyclo[3.3.1]nonan-3-yl)(methyl)amino)-5-fluoro-6-((5-methyl-1H-pyrazol-3-yl)amino)pyrimidin-4-yl)methyl) carbonate] | 10 to 100 nM | – | 1 to 10 nM | > 30 min | > 30 min
8 | CCC(=O)OCc1nc(N(C)[C@@H]2C[C@H]3CCC[C@@H](C2)N3S(=O)(=O)CC)nc(Nc2cc(C)[nH]n2)c1F [Compound 2, (2-(((1R,3s,5S)-9-(ethylsulfonyl)-9-azabicyclo[3.3.1]nonan-3-yl)(methyl)amino)-5-fluoro-6-((5-methyl-1H-pyrazol-3-yl)amino)pyrimidin-4-yl)methyl propionate] | 0.1 to 1 nM | – | 0.1 to 1 nM | > 30 min | > 30 min
9 | CCS(=O)(=O)N1[C@@H]2CCC[C@H]1C[C@H](N(C)c1nc(COC(C)=O)c(F)c(Nc3cc(C)[nH]n3)n1)C2 [Compound 1, (2-(((1R,3s,5S)-9-(ethylsulfonyl)-9-azabicyclo[3.3.1]nonan-3-yl)(methyl)amino)-5-fluoro-6-((5-methyl-1H-pyrazol-3-yl)amino)pyrimidin-4-yl)methyl acetate] | 0.1 to 1 nM | – | 0.1 to 1 nM | > 30 min | > 30 min
10 | CCCCCCC(=O)OCc1nc(N(C)[C@@H]2C[C@H]3CCC[C@@H](C2)N3S(=O)(=O)CC)nc(Nc2cc(C)[nH]n2)c1F [Compound 5, (2-(((1R,3s,5S)-9-(ethylsulfonyl)-9-azabicyclo[3.3.1]nonan-3-yl)(methyl)amino)-5-fluoro-6-((5-methyl-1H-pyrazol-3-yl)amino)pyrimidin-4-yl)methyl heptanoate] | 10 to 100 nM | – | 1 to 10 nM | – | –
